The text below walks through data of ChEMBL document CHEMBL1139115, “Thyroid receptor ligands. Part 7: Indirect antagonists of the thyroid hormone receptor with improved affinity” (Bioorg Med Chem Lett, 2007).

Assay [1] has as its target T1, Thyroid hormone receptor alpha (Homo sapiens, UniProt P10827).
T1 sequence (P10827 whole entry): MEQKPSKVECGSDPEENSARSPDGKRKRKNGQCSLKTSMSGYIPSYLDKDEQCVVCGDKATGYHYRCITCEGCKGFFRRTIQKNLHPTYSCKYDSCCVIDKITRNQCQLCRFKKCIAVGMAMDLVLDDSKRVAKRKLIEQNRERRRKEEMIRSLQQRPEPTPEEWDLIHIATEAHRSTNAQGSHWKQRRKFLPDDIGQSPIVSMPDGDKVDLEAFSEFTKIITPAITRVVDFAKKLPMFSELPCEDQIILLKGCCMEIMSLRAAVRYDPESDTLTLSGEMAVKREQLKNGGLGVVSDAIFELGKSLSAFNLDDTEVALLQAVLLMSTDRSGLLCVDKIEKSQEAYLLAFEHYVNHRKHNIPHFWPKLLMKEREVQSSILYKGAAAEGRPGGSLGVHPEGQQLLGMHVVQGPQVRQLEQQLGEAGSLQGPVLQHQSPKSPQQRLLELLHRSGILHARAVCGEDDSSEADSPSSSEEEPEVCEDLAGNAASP
Description: Displacement of L-T3 from human TR-alpha-1 expressed in CHOK1 cells assessed as TRAF-alpha-1-driven gene transactivation by alkaline phosphatase reporter gene assay. It is filed as cell-based, CHO-K1. (In general: Reporter assays use an easily measured gene product as a stand-in for the process of interest.)

In assay [2] the target is T1, Thyroid hormone receptor alpha. Description: Binding affinity at human TRalpha1.
The target in a further assay is T2, Progesterone receptor (Homo sapiens, UniProt P06401).
T2 sequence (P06401 whole entry): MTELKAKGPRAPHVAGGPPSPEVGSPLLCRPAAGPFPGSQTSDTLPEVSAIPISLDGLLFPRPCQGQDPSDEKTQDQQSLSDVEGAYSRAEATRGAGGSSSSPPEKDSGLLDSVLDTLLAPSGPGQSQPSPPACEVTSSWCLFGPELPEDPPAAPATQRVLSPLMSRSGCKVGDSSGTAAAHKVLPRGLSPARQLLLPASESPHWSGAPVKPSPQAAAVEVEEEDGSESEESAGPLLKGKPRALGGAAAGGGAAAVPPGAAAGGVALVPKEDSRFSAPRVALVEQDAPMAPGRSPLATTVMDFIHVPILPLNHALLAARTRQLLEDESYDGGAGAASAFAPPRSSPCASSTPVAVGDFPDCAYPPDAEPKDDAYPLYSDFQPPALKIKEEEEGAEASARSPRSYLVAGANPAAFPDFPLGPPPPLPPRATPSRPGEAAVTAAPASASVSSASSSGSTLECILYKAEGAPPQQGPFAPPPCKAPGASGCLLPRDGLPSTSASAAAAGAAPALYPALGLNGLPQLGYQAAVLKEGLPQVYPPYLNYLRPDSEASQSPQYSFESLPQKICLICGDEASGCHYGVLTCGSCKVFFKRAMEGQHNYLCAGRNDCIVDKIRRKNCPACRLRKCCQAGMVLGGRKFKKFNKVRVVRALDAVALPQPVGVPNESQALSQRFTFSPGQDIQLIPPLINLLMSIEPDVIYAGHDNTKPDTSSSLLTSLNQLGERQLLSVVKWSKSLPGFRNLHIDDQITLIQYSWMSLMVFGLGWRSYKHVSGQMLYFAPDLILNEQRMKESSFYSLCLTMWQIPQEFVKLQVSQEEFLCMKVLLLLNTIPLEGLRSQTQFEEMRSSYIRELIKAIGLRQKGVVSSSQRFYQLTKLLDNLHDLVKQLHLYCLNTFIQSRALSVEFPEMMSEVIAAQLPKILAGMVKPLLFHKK
Description: Binding affinity at PR.

Assay [3] addresses T3, Mineralocorticoid receptor (Homo sapiens, UniProt P08235).
T3 sequence (P08235 whole entry): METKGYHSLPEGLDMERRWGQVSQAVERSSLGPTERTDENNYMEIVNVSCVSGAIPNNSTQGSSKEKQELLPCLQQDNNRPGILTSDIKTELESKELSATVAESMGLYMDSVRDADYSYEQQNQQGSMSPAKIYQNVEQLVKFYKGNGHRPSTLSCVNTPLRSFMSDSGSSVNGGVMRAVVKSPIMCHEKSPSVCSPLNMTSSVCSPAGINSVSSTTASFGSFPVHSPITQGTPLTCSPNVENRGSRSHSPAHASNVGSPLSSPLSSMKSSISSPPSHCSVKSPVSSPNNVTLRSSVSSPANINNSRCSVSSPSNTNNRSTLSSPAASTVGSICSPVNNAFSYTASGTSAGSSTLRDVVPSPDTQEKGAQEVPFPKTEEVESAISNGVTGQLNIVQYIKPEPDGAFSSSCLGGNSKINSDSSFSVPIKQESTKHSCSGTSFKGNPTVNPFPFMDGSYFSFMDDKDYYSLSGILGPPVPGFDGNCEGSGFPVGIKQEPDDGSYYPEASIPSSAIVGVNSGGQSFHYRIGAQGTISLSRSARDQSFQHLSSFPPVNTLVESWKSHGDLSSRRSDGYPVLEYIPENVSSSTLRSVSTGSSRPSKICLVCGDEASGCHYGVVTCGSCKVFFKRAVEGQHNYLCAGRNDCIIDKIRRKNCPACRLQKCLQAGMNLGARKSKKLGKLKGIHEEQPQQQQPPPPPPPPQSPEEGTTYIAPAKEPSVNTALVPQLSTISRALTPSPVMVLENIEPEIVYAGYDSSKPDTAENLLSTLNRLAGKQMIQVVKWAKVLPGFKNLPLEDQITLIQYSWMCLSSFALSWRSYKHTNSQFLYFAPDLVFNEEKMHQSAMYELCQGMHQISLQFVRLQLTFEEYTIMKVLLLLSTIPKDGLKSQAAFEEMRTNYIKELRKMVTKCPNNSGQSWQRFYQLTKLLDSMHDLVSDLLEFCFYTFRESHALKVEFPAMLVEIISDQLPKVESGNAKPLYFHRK
Description: Binding affinity at MR.

By IC50 is commonly meant the concentration needed to halve the response being measured. On to `O=C(O)CCc1cc(Br)c(OCc2cccc(Br)c2)c(Br)c1`, for which the IC50 in assay [1] came to 90 nM; in assay [2] it was 99 nM; at Progesterone receptor, 2500 nM; in assay [3], 8700 nM.
